From patent publication US11293931B2, “Quantitative profiling of progesterone metabolites for the prediction of spontaneous preterm delivery” (Indiana University Research and Technology Corporation, priority 2016, dated 2022)

Tests used:
[1] = women with a prior history of spontaneous preterm birth; cited from earlier work
[2] = test system: CALM1; assay: Gene array of calmodulin expression with progestogen treatment: CALM1; format: cell-based, human; details: primary myometrial cells treated with a 1:10 M/G ratio, compared to DMSO treated controls (FIG. 11)
Protocol: (§1) The effect of progesterone or HPC treatment on calmodulin gene expression (CALM1, CALM2, CALM3) was further explored. Primary myometrial cells were treated with a 1:10 M/G ratio and a gene array used to assess calmodulin expression. […] The fold change in total CALM expression (trend line for all three isoforms) was approximately half with HPC treatment (4.4-fold) compared to progesterone (8.9-fold) or control treatments (8.3-fold).

[3] = test system: CALM3; assay: Gene array of calmodulin expression with progestogen treatment: CALM3; format: cell-based, human; details: primary myometrial cells treated with a 1:10 M/G ratio, compared to DMSO treated controls (FIG. 11)
Protocol: as §1

[4] = test system: CALM2; assay: Gene array of calmodulin expression with progestogen treatment: CALM2; format: cell-based, human; details: primary myometrial cells treated with a 1:10 M/G ratio; for fold increase in CALM2 expression: compared to DMSO treated controls (FIG. 11)
Protocol: as §1

[5] = test system: total CALM expression; assay: Gene array of calmodulin expression with progestogen treatment: total CALM (all three isoforms); format: cell-based, human; details: primary myometrial cells treated with a 1:10 M/G ratio
Protocol: as §1

Structure (SMILES): CCCCCC(=O)O[C@]1(C(C)=O)CC[C@H]2[C@@H]3CCC4=CC(=O)CC[C@]4(C)[C@H]3CC[C@@]21C [HPC, 17α-hydroxyprogesterone caproate]
- reduction in the risk of recurrent sPTB [1]: 30-40%
- change in CALM1 expression [2]: modest decreases
- change in CALM3 expression [3]: modest decreases
- reduction in CALM2 expression compared to progesterone treated cells [4]: ~30%
- fold increase in CALM2 expression [4]: 9 fold
- fold change in total CALM expression (trend line for all three isoforms) [5]: 4.4 fold

Structure (SMILES): CC(=O)[C@H]1CC[C@H]2[C@@H]3CCC4=CC(=O)CC[C@]4(C)[C@H]3CC[C@]12C [progesterone]
- change in CALM1 expression [2]: modest decreases
- change in CALM3 expression [3]: modest decreases
- fold increase in CALM2 expression [4]: 13 fold
- fold change in total CALM expression (trend line for all three isoforms) [5]: 8.9 fold
